Source: patent publication US8242142B2, “Cyclohexylamines, phenylamines and uses thereof” (The Regents of the University of California, priority 2008, dated 2012)
Where two headings read alike, the source gives them in different places.

What was measured:
[1] = test system: Gli:GFP expression (Hh signaling); experiment: Gli:GFP transgenic zebrafish embryo assay; format: in vivo; conditions: for concentration at which inhibition of Hh signaling starts to show: zebrafish embryo assays; for concentration that blocks/abolishes Gli:GFP expression: zebrafish embryos
Text: Generation of Gli:GFP transgenic zebrafish. […] The PCR product digested with Nhe1 and Mlu1 was ligated to GFP and used to generate transgenic zebrafish by microinjection.
Image acquisition and analysis.

[2] = test system: Shh-LIGHT2 cells; experiment: Compound activities in Shh-LIGHT2 cells (Gli-dependent luciferase reporter); format: cell-based; conditions: Shh Light2, Shh-N-conditioned medium, luciferase reporter activity
Method: Shh-LIGHT2 cells (ATCC CRL-2795), a NIH-3T3 cell line stably incorporating Gli-dependent firefly luciferase and thyrmidine kinase promoter-driven Renilla luciferase reporters (Taipale J, Chen J K, Cooper M K, Wang B. Mann R K, Milenkovic L. et al. “Effects of oncogenic mutations in Smoothened and Patched can be reversed by cyclopamine” Nature 2000; 406:1005-9; incorporated herein by reference), were cultured to confluency in 96-well plates using DMEM medium containing 10% calf serum, 100 U/mL penicillin, and 100 μg/mL streptomycin. The cells were then treated with various concentrations of the compounds in DMEM containing 0.5% calf serum and a 1:20 dilution of Shh-N-conditioned medium (Chen J. K., Taipale J. Young K. E., Maiti T Beachy P. A., “Small molecule modulation of Smoothened activity” Proc. Natl. Acad. Sci. U.S.A., 2002; 99:14071-6; incorporated herein by reference). The cells were cultured for an additional 30 h under standard conditions. Firefly and Renilla luciferase activities were measured on a Veritas luminometer (Turner Biosystems) using a dual luciferase kit (Promega) according to the manufacturers' protocols.

[3] = test system: zebrafish embryos; experiment: Zebrafish embryo phenotype analysis (insulin:GFP beta cells, Flk:GFP intersegmental vessels, somites); format: in vivo; conditions: for off-target toxicity: whole zebrafish embryo assays
Method: If SANT74 and SANT75 are specific inhibitors of Hh treating, zebrafish embryos should only produce these well-characterized phenotypes. […] Using these criteria, the specificity of SANT74 and 75 in zebrafish was evaluated.
As a utility of this new inhibitor, timing requirement of Hh for normal somite formation and sprouting of ISV was tested by adding and washing away SANT74 at various developmental stages followed by phenotypic analysis.

[4] = test system: Hh signal pathway target genes Ptch1 and Gli1 mRNA; experiment: Quantitative real-time PCR of Hh target genes in zebrafish embryos; format: in vivo; conditions: dose dependent; for Ptch1 mRNA level: FIG. 1A; for Gli1 mRNA level: FIG. 1B
Method: Quantitative Real-time PCR. The larvae were exposed to different concentrations of small molecules from 2 hpf. Total RNA was extracted from the embryos at 36 hpf using the Trizol kit (Ambion, Austin, Tex.) according to the manufacturer's instructions. Three groups per treatment, each composed of 20 embryos, were assayed using SYBRGreen qPCR kit by real-time PCR (ABI Prism 7700 Sequence Detector System).

[5] = target: T1, mouse Smoothened (Mus musculus, UniProt P56726); experiment: Smo-binding assay (BODIPY-cyclopamine competition, HEK 293T cells); conditions: 5 nM BODIPY-cyclopamine, Smo-overexpressing HEK 293T cells
T1 construct: expressed in transfected cells; host or cells: HEK 293T
Method: Smo-binding assay. HEK 293T cells were cultured in DMEM containing 10% fetal bovine serum, 100 U/mL penicillin, and 100 μg/mL streptomycin to 50% confluency in 96-well plates and then transfected with a CMV promoter-driven mouse Smoothened-Myc3 expression construct (100 ng cDNA/well) with Fugene 6 (Roche) according to the manufacturer's protocols. After 12 h the cells were incubated with DMEM containing 0.5% fetal bovine serum, 10 μM Hoechst 33342, 5 nM BODIPY-labeled cyclopamine (Chen J. K., Taipale J, Cooper M. K., Beachy P. A., “Inhibition of Hedgehog signaling by direct binding of cyclopamine to Smoothened” Genes Dev., 2002; 16:2743-8; incorporated herein by reference), and various concentrations of compound 75 for 1 h. The cells were washed two times with PBS buffer and then imaged in DMEM containing 0.5% fetal bovine serum using an ImageXpress 5000A microscopy system (Molecular Devices).

[6] = test system: mouse Smo; experiment: FRET analysis of Smo conformation in NIH-3T3 cells; format: cell-based; conditions: for Shh-induced decrease in FRET from mSmo-CFPL2YFPC (FRETL2C) / Shh-induced increase in FRET between mSmo-CFPC and mSmo-YFPC (FRETC): 50 nM, with Shh; for basal FRET of mSmo-CFPN/mSmoYFPN (N-termini): SANT74 or SANT75 50 nM, SAG 100 nM, with or without Shh
Method: FRET analysis using confocal microscopy. Effect of SAG, compound 21a (SANT74), and compound 21b (SANT75) on mSmo conformational change was tested by FRET in NIH-3T3 cells that were co-transfected with mouse Smo CFP and Smo YFP reporter constructs. The construction of mSmo-CFP^C/YFP^C, mSmo-CFP^N/YFP^N, and mSmo-CFP^L2YFP^C was performed as described in Zhao Y. Tong C, Jiang J., “Hedgehog regulates smoothened activity by inducing a conformational switch” Nature, 2007; 450:252-8; incorporated herein by reference. NIH-3T3 cells were cultured in DMEM containing 10% bovine calf serum and antibiotics PS at 5% CO2 in a humidified incubator. Transfection was carried out using FuGENE6 (Roche). For FRET analysis of cultured cells, CFP- and YFP-tagged constructs were transfected into NIH-3T3 cells. Transfected cells were treated in the presence of compounds with or without Shh-conditioned medium. Cells were washed with PBS, fixed with 4% formaldehyde for 20 min, and mounted on slides in 80% glycerol. Fluorescence signals were acquired with the 100× objective of a Zeiss LSM510 confocal microscope. CFP was excited by 458 nm light and the emission was collected through BP 480-520 nm filter. YFP was excited by 514 nm light and the emission was collected through BP 535-590 nm filter. CFP signal was obtained once before and once after photobleaching YFP using the full power of the 514 nm laser line for 1-2 min at the top half of each cell, leaving the bottom half unbleached that serves as an internal control. The intensity of CFP was analyzed using the Metamorph software (Universal Imaging Corn). Energy transfer efficiency was calculated using the formula: FRET %=(CFPAP−CFPBP/CFPAP)×100. Each data set was based on 10-15 individual cells. In each cell, four to five regions of interest in the photobleached area were selected for analysis.

[7] = Stability remarks; format: physicochemical; conditions: in our studies

T1 sequence (P56726 33-793): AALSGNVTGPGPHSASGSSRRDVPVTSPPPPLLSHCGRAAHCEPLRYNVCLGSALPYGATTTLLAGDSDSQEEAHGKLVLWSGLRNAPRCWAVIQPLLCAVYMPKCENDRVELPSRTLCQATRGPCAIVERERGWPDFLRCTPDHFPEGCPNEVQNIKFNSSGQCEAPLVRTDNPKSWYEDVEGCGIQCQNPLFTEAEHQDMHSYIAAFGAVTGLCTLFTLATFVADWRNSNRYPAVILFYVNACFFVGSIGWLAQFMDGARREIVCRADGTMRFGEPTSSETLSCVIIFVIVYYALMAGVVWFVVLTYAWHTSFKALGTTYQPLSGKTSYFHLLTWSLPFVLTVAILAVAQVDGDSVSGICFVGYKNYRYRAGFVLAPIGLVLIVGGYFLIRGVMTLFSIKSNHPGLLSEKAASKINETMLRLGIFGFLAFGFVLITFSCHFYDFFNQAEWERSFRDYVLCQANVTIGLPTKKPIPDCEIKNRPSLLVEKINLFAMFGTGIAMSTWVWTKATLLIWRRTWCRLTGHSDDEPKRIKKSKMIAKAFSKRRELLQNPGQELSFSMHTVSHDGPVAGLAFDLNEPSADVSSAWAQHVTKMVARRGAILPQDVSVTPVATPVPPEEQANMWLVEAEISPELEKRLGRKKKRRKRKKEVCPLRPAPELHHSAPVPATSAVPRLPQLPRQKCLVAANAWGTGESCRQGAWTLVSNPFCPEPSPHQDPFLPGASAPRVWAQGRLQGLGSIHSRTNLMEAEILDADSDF

For `CC1=C2C[C@H]3[C@@H](CC=C4C[C@@H](O)CC[C@@]43C)[C@@H]2CC[C@]12O[C@@H]1C[C@H](C)CN[C@H]1[C@H]2C` [cyclopamine, reference compound], the “Gli:GFP expression upon treatment” value ([1]; transgenic embryos, concentration not given) was “abolished” and the IC50 [2] was 0.3 µM.
In the case of `CCCN[C@H]1CC[C@H](N(Cc2cccc(-c3ccncc3)c2)C(=O)c2sc3ccccc3c2Cl)CC1` [SANT75, 3-chloro-N-(trans-4-(propylamino)cyclohexyl)-N-(3-(pyridin-4-yl)benzyl)benzo[b]thiophene-2-carboxamide], the “concentration at which inhibition of Hh signaling starts to show” value [1] is reported as 5 µM, the “concentration that blocks/abolishes Gli:GFP expression” value [1] is reported as 20 µM and the off-target toxicity [3] is reported as “no obvious off-target toxicity”. For the same compound, the “Ptch1 mRNA level” value [4] was “reduced”, the “Gli1 mRNA level” value [4] was “reduced” and the IC50 ([2]; read-out: IC50) was 0.02 µM. The BODIPY-cyclopamine/Smo binding [5] was “effectively abrogate”, the “Shh-induced decrease in FRET from mSmo-CFPL2YFPC (FRETL2C)” value [6] was “blocked” and the “Shh-induced increase in FRET between mSmo-CFPC and mSmo-YFPC (FRETC)” value [6] was “blocked”. The “basal FRET of mSmo-CFPN/mSmoYFPN (N-termini)” value [6] was “not affected” and the stability [7] was “relatively stable”.
With `CNC1CCC(N(Cc2cccc(-c3ccncc3)c2)C(=O)c2sc3ccccc3c2Cl)CC1` (stereo not drawn) [SAG, reference compound] the “effect on Gli:GFP expression” value ([1]; same condition as SANT19, approximately 80 μM) was “no effect”, the FRETC ([6]; 100 nM, independent of Shh) was “increase” and the FRETL2C ([6]; 100 nM, independent of Shh) was “decrease”. The “basal FRET of mSmo-CFPN/mSmoYFPN (N-termini)” value [6] was “not affected”.
For `C=CCN[C@H]1CC[C@H](N(Cc2cccc(-c3ccncc3)c2)C(=O)c2sc3ccccc3c2Cl)CC1` [SANT74, N-(trans-4-(allylamino)cyclohexyl)-3-chloro-N-(3-(pyridin-4-yl)benzyl)benzo[b]thiophene-2-carboxamide], the “concentration at which inhibition of Hh signaling starts to show” value [1] was 5 µM, the “concentration that blocks/abolishes Gli:GFP expression” value [1] was 20 µM and the “intersegmental blood vessels (ISV)” value ([3]; 20 μM, Flk:GFP transgenic zebrafish) was “significantly reduced”. The “insulin:GFP cells” value ([3]; 20 μM, insulin:GFP transgenic zebrafish) was “significantly reduced”, the “effect on sprouting of ISV” value ([3]; added after 24 hpf) was “no longer had any effect” and the somite phenotype ([3]; added for 4 hours before 21 hpf) was “induce U shape somite formation”. The “sprouting of ISV” value ([3]; added upon fertilization, washed away before 17 hpf) was “could occur normally”, the “concentration at which embryos no longer developed any extended ISVs” value ([3]; dose dependent inhibition of angiogenesis) was ≥ 20 µM and the “circulation by microangiographic analysis” value ([3]; embryos with defective ISVs) was “lacked circulation”. For the same compound, the off-target toxicity [3] was “no obvious off-target toxicity”, the “Ptch1 mRNA level” value [4] was “reduced” and the “Gli1 mRNA level” value [4] was “reduced”. The “Shh-induced decrease in FRET from mSmo-CFPL2YFPC (FRETL2C)” value [6] was “blocked”, the “Shh-induced increase in FRET between mSmo-CFPC and mSmo-YFPC (FRETC)” value [6] was “blocked” and the “basal FRET of mSmo-CFPN/mSmoYFPN (N-termini)” value [6] was “not affected”. For the same compound, the stability [7] was “relatively stable”.
